Data on 10 compounds can be found in patent publication US9296741B2, “Bromodomain inhibitors” (priority 2012, dated 2016).

By Ki is commonly meant a measure of affinity in units of concentration, obtained from inhibition or displacement. Lower therefore signals higher affinity.

Read-outs that look alike come from different tables or passages of the source. Marks after values point to notes of the source that are not given here.

The target of data set [1] is human BRD4 first bromodomain (BDI_K57-E168) (Homo sapiens (Human), UniProt O60885). Kind of data set: TR-FRET bromodomain binding assay, BRD4 first bromodomain.
The target in data set [2] is human BRD4 second bromodomain (BDII_E352-M457) (Homo sapiens (Human), UniProt O60885). The data set can be described thus: TR-FRET bromodomain binding assay, BRD4 second bromodomain.
Data set [3] deals with breast cancer cell line MX-1. The data set can be described thus: MX-1 cell line proliferation assay. The note with it: Homo sapiens, MX1, 72 h; MX-1 cells, 3-day proliferation, Cell Titer Glo; read-out: Cellular proliferation: EC50. The data set is classed as cell-based, human. On the technique in general: ATP-based viability assays read luminescence as a measure of living cells.

Data set [4] is described as follows: Human liver microsome stability assay. The note with it: both sexes, human, microsomes, pH 7.4. The class given is in vitro ADME. On the technique in general: Microsomes from liver hold many membrane-bound enzymes, among them those of drug oxidation.
Data set [5] is described as follows: Rat liver microsome stability assay. The note with it: rat liver microsomes (male Sprague-Dawley), 0.5 μM test compound, 0.25 mg/mL microsomal protein, pH 7.4, 37° C.; read-out: Stability in rat liver microsomes (t1/2 in minutes). The data set is classed as in vitro ADME.
Data set [6] is described as follows: Mouse liver microsome stability assay. The data set is classed as in vitro ADME. The note with it: male, CD1, mouse, microsomes, pH 7.4.
For data set [7], the system named is LPS induced IL-6 production. The data set can be described thus: LPS (lipopolysaccharide) induced IL-6 production mouse assay. The class given is in vivo. The note with it: Mus musculus, read-out: Inhibition of LPS induced IL-6 production in Mice, % inhibition at 3 mg/kg; 3 mg/kg oral, 1 h before LPS; serum IL-6 2 h after LPS.
The test system of data set [8] is MX-1 human breast cancer xenograft tumors. The data set can be described thus: Xenograft tumor growth inhibition assay, MX-1. The note with it: MX-1, PO, vehicle F. The class given is in vivo, mouse.
Data set [9] deals with OPM-2 human multiple myeloma xenograft tumors. Kind of data set: animal or person. The note with it: Mus musculus, OPM-2, po, PO, vehicle A; for change in vivo at 1 mg/kg / inhibition in vivo at 1 mg/kg: 1 mg/kg/day; for change in vivo at 3 mg/kg / inhibition in vivo at 3 mg/kg: 3 mg/kg/day.
Data set [10] deals with MV4-11 human cancer cell xenograft. Kind of data set: Xenograft efficacy study, MV4-11. The class given is in vivo, mouse. The note with it: 250 mg/kg/day, IP, BID Q7Dx3, vehicle C.
Data set [11] has as its system SKM1 human cancer cell xenograft. Kind of data set: Xenograft efficacy study, SKM1. The class given is in vivo, mouse.
The subject of data set [12] is rat collagen induced arthritis (rCIA) paw swelling. The note with it: rCIA, dosed at 3 mg/kg (positive control) once daily day 10-17.
The mark [13] stands for this setting: 3 mg/kg/day, QD (5 on, 3 off, 5 on).
Setting [14] is: 250 mg/kg/day, IP, BID Q7Dx3, vehicle C.
Where [15] appears, read: read-out: % TGD (tumor growth delay), OPM-2, QDx21.
The mark [16] stands for this setting: read-out: % TGI (tumor growth inhibition), OPM-2, QDx21.
The mark [17] stands for this setting: 6 mg/kg/day, IV, Q7Dx3, vehicle C.

Take `Cn1cc(-c2cc(NS(C)(=O)=O)ccc2Oc2ccc(F)cc2F)c2cc[nH]c2c1=O` [Example 27, N-[4-(2,4-difluorophenoxy)-3-(6-methyl-7-oxo-6,7-dihydro-1H-pyrrolo[2,3-c]pyridin-4-yl)phenyl]methanesulfonamide]: the inhibition constant Ki in data set [1] was determined as 2.5 nM; in data set [2], 2.2 nM. In addition, in [3], the EC50 was determined as 31.7 nM. For the same compound, the half-life at 0.5 μM was 32 min in data set [4], more than 120 min in data set [5] and 59 min in [6]. For the same compound, the inhibition in vivo at 3 mg/kg is 89% in [7] and 67% in data set [9] (read-out: % TGI (tumor growth inhibition), OPM-2, QD (5 on, 3 off, 5 on)). In addition, the “% TGD (tumor growth delay)” value in [8] (0.3 mg/kg/day, QD) stood at 35%; in data set [8] (1 mg/kg/day, QD) it was 13%. Also, the “% TGI (tumor growth inhibition)” value in [8] (0.3 mg/kg/day, QD) is 38** %; in [8] (1 mg/kg/day, QD) it was 57*** %; in data set [8] (setting [13]), 69*** %. For the same compound, the “% removed from study” value in data set [8] (0.3 mg/kg/day, QD) came out at 0%; in data set [8] (1 mg/kg/day, QD), 0%; in data set [8] (setting [13]), 0%. Also, the change in vivo at 1 mg/kg in [9] (read-out: % TGD (tumor growth delay), OPM-2, QDx14) is -2%. The change in vivo at 3 mg/kg in data set [9] (read-out: % TGD (tumor growth delay), OPM-2, QD (5 on, 3 off, 5 on)) turned out to be 7%. For the same compound, the inhibition in vivo at 1 mg/kg in data set [9] (read-out: % TGI (tumor growth inhibition), OPM-2, QDx14) amounted to 59%.
`Nc1ccn([C@@H]2O[C@H](CO)[C@@H](O)[C@@H]2O)c(=O)n1` [cytarabine]: in [10], the “% TGD (tumor growth delay)” value is on record as 37*** %, the “% TGI (tumor growth inhibition)” value was 47*** % and the “% removed from study” value turned out to be 0%. Besides, in data set [11] (setting [14]), the “% TGD (tumor growth delay)” value stood at 30%, the “% TGI (tumor growth inhibition)” value turned out to be 20% and the “% removed from study” value was 0%.
As to `CCS(=O)(=O)c1ccc(NCC2CC2)c(-c2cn(C)c(=O)c3[nH]ccc23)c1` [Example 200, 4-{2-[(cyclopropylmethyl)amino]-5-(ethylsulfonyl)phenyl}-6-methyl-1,6-dihydro-7H-pyrrolo[2,3-c]pyridin-7-one], the inhibition constant Ki in data set [1] amounted to 0.86 nM; in [2], 1.1 nM. Further, the EC50 in data set [3] came out at 11.3 nM. Besides, the half-life at 0.5 μM in [4] is more than 120 min; in [5], 31 min; in data set [6] it was more than 120 min. The inhibition in vivo at 3 mg/kg came to 75% in [7] and 80% in [9] (setting [16]). Further, in data set [9] (setting [15]), the change in vivo at 1 mg/kg is 44%. Also, the change in vivo at 3 mg/kg in data set [9] (setting [15]) was found to be 82%. Also, the inhibition in vivo at 1 mg/kg in [9] (setting [16]) was determined as 50%.
Consider `Cn1cc(-c2cc(CS(C)(=O)=O)cnc2Oc2ccc(F)cc2F)c2cc[nH]c2c1=O` [Example 311, 4-{2-(2,4-difluorophenoxy)-5-[(methylsulfonyl)methyl]pyridin-3-yl}-6-methyl-1,6-dihydro-7H-pyrrolo[2,3-c]pyridin-7-one], for which the Ki in [1] was 14.8 nM; in [2], 4.5 nM. The EC50 in data set [3] turned out to be 22.4 nM. Also, the values for the half-life at 0.5 μM in [4], in [5] and in [6] were more than 120 min, 83 min and more than 120 min, respectively. For the same compound, the inhibition in vivo at 3 mg/kg in [7] came to 74%. Further, the change in vivo at 1.25 mg/kg in [9] (read-out: % TGD (tumor growth delay), OPM-2, 1.25 mg/kg/day, QDx21) came to 90%. Besides, the inhibition in vivo at 1.25 mg/kg in [9] (read-out: % TGI (tumor growth inhibition), OPM-2, 1.25 mg/kg/day, QDx21) worked out at 60%.
On to `Nc1ncn([C@@H]2O[C@H](CO)[C@@H](O)[C@H]2O)c(=O)n1` [azacitidine], for which, in data set [11] (setting [17]), the “% TGD (tumor growth delay)” value is reported as 98* %, the “% TGI (tumor growth inhibition)” value is recorded as 54** % and the “% removed from study” value came out at 0%.
Regarding `C[C@]12C=CC(=O)C=C1CC[C@@H]1[C@@H]2[C@@H](O)C[C@@]2(C)[C@H]1CC[C@]2(O)C(=O)CO` [Prednisolone, prednisolone, reference compound], in data set [12], the “AUC of Paw Swelling, MEAN” value is listed as 0.67** ml-day.
Consider `Cn1cc(-c2cc(S(N)(=O)=O)ccc2Oc2ccc(F)cc2F)c2cc[nH]c2c1=O` [Example 146, 4-(2,4-difluorophenoxy)-3-(6-methyl-7-oxo-6,7-dihydro-1H-pyrrolo[2,3-c]pyridin-4-yl)benzenesulfonamide], for which the Ki in data set [1] was 7.5 nM; in data set [2] it was 1.9 nM. In addition, the EC50 in data set [3] came out at 60.9 nM. The half-life at 0.5 μM was more than 120 min in data set [4], 52 min in [5] and 55 min in data set [6]. Further, the inhibition in vivo at 3 mg/kg was found to be 80% in data set [7] and 76% in data set [9] (setting [16]). In addition, the change in vivo at 1 mg/kg in data set [9] (setting [15]) stood at 35%. For the same compound, the change in vivo at 3 mg/kg in data set [9] (setting [15]) is 78%. In addition, the inhibition in vivo at 1 mg/kg in [9] (setting [16]) was determined as 39%.
Regarding `CNS(=O)(=O)c1ccc(OCC2CC2)c(-c2cn(C)c(=O)c3[nH]ccc23)c1` [Example 250, 4-(cyclopropylmethoxy)-N-methyl-3-(6-methyl-7-oxo-6,7-dihydro-1H-pyrrolo[2,3-c]pyridin-4-yl)benzenesulfonamide], the Ki in data set [1] and in data set [2] was 1.5 nM throughout. Moreover, the EC50 in data set [3] was found to be 18 nM. Moreover, the half-life at 0.5 μM in [4] was found to be 56 min; in data set [5] it was 36 min; in [6], 37 min. Further, the change in vivo at 3 mg/kg in data set [9] (setting [15]) turned out to be 29%. The inhibition in vivo at 3 mg/kg in data set [9] (setting [16]) was determined as 42%.
`Cn1cc(-c2cc(S(C)(=O)=O)ccc2OCC2CC2)c2cc[nH]c2c1=O` [Example 158, 4-[2-(cyclopropylmethoxy)-5-(methylsulfonyl)phenyl]-6-methyl-1,6-dihydro-7H-pyrrolo[2,3-c]pyridin-7-one]: the values for the inhibition constant Ki in [1] and in [2] were 4.1 nM and 9.7 nM, respectively. Further, the EC50 in [3] was found to be 24.3 nM. The half-life at 0.5 μM in data set [4], in data set [5] and in [6] was more than 120 min in each case. In addition, the change in vivo at 6 mg/kg in [9] (read-out: % TGD (tumor growth delay), OPM-2, 6 mg/kg/day, QDx21) amounted to 34%. In addition, the change in vivo at 20 mg/kg in data set [9] (read-out: % TGD (tumor growth delay), OPM-2, 20 mg/kg/day, QDx21) turned out to be 72%. In data set [9] (read-out: % TGI (tumor growth inhibition), OPM-2, 6 mg/kg/day, QDx21), the inhibition in vivo at 6 mg/kg is 53%. The inhibition in vivo at 20 mg/kg in [9] (read-out: % TGI (tumor growth inhibition), OPM-2, 20 mg/kg/day, QDx21) turned out to be 78%.
In the case of `CCS(=O)(=O)c1ccc(OC2CCC(F)(F)CC2)c(-c2cn(C)c(=O)c3[nH]ccc23)c1` [Example 169, 4-{2-[(4,4-difluorocyclohexyl)oxy]-5-(ethylsulfonyl)phenyl}-6-methyl-1,6-dihydro-7H-pyrrolo[2,3-c]pyridin-7-one], the Ki in [1] came out at 0.88 nM; in [2] it was 0.86 nM. In addition, the EC50 in [3] was 5.3 nM. The half-life at 0.5 μM came to 86 min in [4], 34 min in [5] and 38 min in [6]. Also, the inhibition in vivo at 3 mg/kg was determined as 67% in data set [7] and 69% in [9] (setting [16]). Moreover, in data set [9] (setting [15]), the change in vivo at 3 mg/kg is 77%.
